Experimental data taken from article PMC6268586, “Effect of Wine and Vinegar Processing of Rhizoma Corydalis on the Tissue Distribution of Tetrahydropalmatine, Protopine and Dehydrocorydaline in Rats” (Molecules, 2012).
Like-named read-outs stand apart in the source and are kept apart here.

Experiment: Tissue distribution of THP, DHC and protopine in rat tissues after gastric gavage administration (HPLC-UV, non-compartmental analysis)
Assay type: in vivo, Wistar male rats
Settings: male, Wistar, po, 26.1 mg/kg; for AUC(0-t): read-out: AUC0–24 h of DHC; for Cmax: read-out: Cmax of DHC; for MRT: read-out: MRT of DHC; for Tmax: read-out: Tmax of DHC
Procedure: The experimental protocol was approved by the University's Animal Ethics Committee. […] Rats had unlimited access to water. Standard food was given until 12 h before the experiments. Rhizoma Corydalis was processed according to Pharmacopoeia of Chinese Medicine and National Guideline of Traditional Chinese Medicinal Plants Processing. Briefly, fresh Rhizoma Corydalis was boiled in water till the pith turn light brown color. Cooked rhizome was sliced into pieces (4 mm, diameter) and dried at 25 °C. Dried slices were mixed with edible vinegar (100:20, rhizome/vinegar, w/v) or yellow wine (100:10, rhizome/wine, w/v) and the slices allowed to completely absorb the vinegar or wine. The soaked slices were then stir-fried in a metallic pan over a low flame till they were completely dry. The processed Rhizoma Corydalis was added with 70% ethanol (1:30 w/v) and sonicated for 1 h at room temperature. The extract was then concentrated to remove the ethanol residue and stored at 4 °C for further use. […] The ethanol extract of the unprocessed Rhizoma Corydalis and THP, DHC and protopine pure compound were used as the controls. Three hundred and sixty healthy rats were used in total and are divided into six groups (Group 1-6, sixty rats per group). Drugs were administrated by gastric gavage method. In order to keep the dose of THP, DHC and protopine constant in each group, the amount of ethanol extract of Rhizoma Corydalis administrated was normalized based on the dose of protopine pure compound used. The dose of THP and DHC pure compound administrated was same with that in the ethanol extract of Rhizoma Corydalis. The details were listed below. […] Rats were administrated with the 70% ethanol extract of unprocessed Rhizoma Corydalis at a dose of 17.75 g extract/kg body weight. […] Rats received the extract of vinegar-processed Rhizoma Corydalis at a dose of 15 g extract/kg rat body weight. Group 3: Rats were administrated with the extract of wine processed Rhizoma Corydalis at a dose of 15.78 g extract/kg body weight. […] Rats received THP pure compound at a dose of 6.45 mg/kg body weight. Group 6: Rats were administrated 26.10 mg of DHC pure compound/kg body weight. […] Brian tissue was further dissected into six parts: cerebrum, cerebellum, diencephalons, brain stem, hippocampus and striatum. All the tissue samples were rinsed with ice-old saline and stored at -20 °C until extraction. Tissue samples were homogenized in three volumes of ice-cold biological saline and centrifuged for 10 min at 10,000 g and 4 °C. An aliquot of the supernatant (0.5 mL) was collected. Liquid-liquid extraction was used to extract THP, DHC and protopine. One hundred microliter of 1.0 μg/mL nuciferin (internal standard) was mixed with 0.5 mL aliquots of the supernatant. […] The supernatant was evaporated completely under the nitrogen stream in a 60 °C water bath. The residue was redissolved in 100 μL of methanol. A CoMetro HPLC system (CoMetro Technology Ltd, South […], NJ, USA) with 6000 PVW detector UV-VIS detector was used. […] Ltd., Liaoning, China). Other chromatographic conditions were: column temperature, 35 °C; mobile phase, acetonitrile-0.1% phosphoric acid (pH 3.0) (30:70 v/v); flow rate, 1 mL/min; wavelength, 280 nm. Pharmacokinetic parameters were estimated by non-compartmental analysis using Equiv Test/PK (Statistical Solutions Ltd., Saugus, MA, USA). The maximum concentration (Cmax) and the time to reach the maximum concentration (Tmax) were directly obtained from the observed value. All data were represented as mean ± SD. Comparison of values between groups was performed using one-way ANOVA followed by Tukey's test for comparisons among four groups.

[1] = diencephalon, rat diencephalons

Question: With COc1cc2c(cc1OC)-c1c(C)c3ccc(OC)c(OC)c3c[n+]1CC2 [DHC, dehydrocorydaline] as the molecule, how does the AUC(0-t) [1] read?
Answer: 210 ± 50 ng·h/mL

Question: What about the Cmax [1] of the same molecule?
Answer: 80 ± 20 ng/mL

Question: What about the MRT [1] of the same molecule?
Answer: 5.3 ± 0.12 h

Question: What about the Tmax [1] of the same molecule?
Answer: 0.52 ± 0.11 h

Question: What about the AUC(0-t) (rat brain stem) of the same molecule?
Answer: 410 ± 60 ng·h/mL

Question: What about the Cmax (rat brain stem) of the same molecule?
Answer: 160 ± 30 ng/mL

Question: And the MRT (rat brain stem)?
Answer: 4.29 ± 0.15 h

Question: And the Tmax (rat brain stem)?
Answer: 0.5 h

Question: What about the AUC(0-t) (rat cerebellum) of the same molecule?
Answer: 170 ± 30 ng·h/mL

Question: What about the Cmax (rat cerebellum) of the same molecule?
Answer: 50 ± 20 ng/mL

Question: What about the MRT (rat cerebellum) of the same molecule?
Answer: 5.67 ± 0.32 h

Question: And the Tmax (rat cerebellum)?
Answer: 0.25 h

Question: And the AUC(0-t) (rat cerebrum)?
Answer: 150 ± 30 ng·h/mL

Question: What about the Cmax (rat cerebrum) of the same molecule?
Answer: 50 ± 10 ng/mL

Question: And the MRT (rat cerebrum)?
Answer: 5.39 ± 0.19 h

Question: And the Tmax (rat cerebrum)?
Answer: 0.25 ± 0.02 h

Question: And the AUC(0-t) (rat heart)?
Answer: 850 ± 120 ng·h/mL

Question: What about the Cmax (rat heart) of the same molecule?
Answer: 440 ± 130 ng/mL

Question: And the MRT (rat heart)?
Answer: 8.72 ± 6.38 h

Question: What about the Tmax (rat heart) of the same molecule?
Answer: 0.25 h

Question: What about the AUC(0-t) (rat hippocampus) of the same molecule?
Answer: 270 ± 60 ng·h/mL

Question: What about the Cmax (rat hippocampus) of the same molecule?
Answer: 70 ± 20 ng/mL

Question: And the MRT (rat hippocampus)?
Answer: 8.43 ± 0.51 h

Question: What about the Tmax (rat hippocampus) of the same molecule?
Answer: 1.08 ± 0.07 h

Question: What about the AUC(0-t) (rat kidney) of the same molecule?
Answer: 890 ± 90 ng·h/mL

Question: What about the Cmax (rat kidney) of the same molecule?
Answer: 310 ± 20 ng/mL

Question: What about the MRT (rat kidney) of the same molecule?
Answer: 4.94 ± 0.12 h

Question: And the Tmax (rat kidney)?
Answer: 0.25 ± 0.01 h

Question: What about the AUC(0-t) (rat liver) of the same molecule?
Answer: 1570 ± 340 ng·h/mL

Question: What about the Cmax (rat liver) of the same molecule?
Answer: 620 ± 180 ng/mL

Question: What about the MRT (rat liver) of the same molecule?
Answer: 4.85 ± 0.1 h

Question: What about the Tmax (rat liver) of the same molecule?
Answer: 0.25 h

Question: And the AUC(0-t) (rat lung)?
Answer: 570 ± 130 ng·h/mL

Question: What about the Cmax (rat lung) of the same molecule?
Answer: 370 ± 110 ng/mL

Question: What about the MRT (rat lung) of the same molecule?
Answer: 3.98 ± 0.1 h

Question: And the Tmax (rat lung)?
Answer: 0.25 ± 0.01 h

Question: And the AUC(0-t) (rat spleen)?
Answer: 830 ± 190 ng·h/mL

Question: What about the Cmax (rat spleen) of the same molecule?
Answer: 360 ± 80 ng/mL

Question: And the MRT (rat spleen)?
Answer: 3.26 ± 0.08 h

Question: What about the Tmax (rat spleen) of the same molecule?
Answer: 0.25 ± 0.1 h

Question: And the AUC(0-t) (rat striatum)?
Answer: 210 ± 40 ng·h/mL

Question: What about the Cmax (rat striatum) of the same molecule?
Answer: 60 ± 20 ng/mL

Question: What about the MRT (rat striatum) of the same molecule?
Answer: 7.27 ± 0.3 h

Question: What about the Tmax (rat striatum) of the same molecule?
Answer: 0.25 ± 0.01 h
